Results from US20070066616A1, “Inhibitors for extracellular signal-regulated kinase docking domains and uses therefor” (priority 2005, published 2007).

Key:
[1] = test system: ERK1/2 phosphorylation by MEK1/2; test: ERK1/2 phosphorylation on activating sites (upstream MEK1/2), immunoblot; type: cell-based, human; settings: HeLa cells, EGF stimulated
Description: HeLa cells were pretreated with or without 100 μM of test compounds for 5 min (FIGS. 5A-5B) or 15 min (FIGS. 5C-5E) prior to the addition of epidermal growth factor (EGF or E) to stimulate the ERK pathway or anisomycin (A) to stimulate p38 MAP kinase. In FIGS. 5A-5B HeLa cells were treated with EGF for 5 minutes. […] The far left lane is the control (−) with no EGF. […] The control (C) is EGF only treatment. In FIG. 5B cells pretreated with increasing concentrations of compound 76 were stimulated with EGF. ELK-1 phosphorylation on Ser383 (pELK-1) was measured by immunoblotting. The expression of dually phosphorylated ERK1/2 (ppERK1/2) and a-tubulin as a loading control are also shown. […] The pElk-1 phosphorylation in the presence of the test compounds was compared to the EGF only treatment, which was set at 100%. […] The pRsk-1 phosphorylation in the presence of the test compounds was compared to the EGF only treatment, which was set at 100%. […] The pATF2 phosphorylation in the presence of the test compounds was compared to the anisomycin (A) only treatment, which was set at 100%. The data were reproduced in at least 3 independent experiments.
Prior to harvesting, cells were pre-incubated with the test compounds for 15-20 minutes and then stimulated with EGF or anisomycin to activate the ERK or p38 MAP kinase pathways, respectively. […]

[2] = test system: HT1080 fibrosarcoma cells; test: Cell proliferation, HT1080 cells; type: cell-based, human; settings: data not shown
Description: Trypsinized cells were plated on 12 or 24 well plates at low densities (200-400 cells per well) in the absence (DMSO only) or presence of test compounds. In additional experiments, cells were first allowed to adhere to the culture dishes for 16 hours prior to treatment with test compounds. The treated cells received a single dose of the test compounds at the beginning of the experiments. The control and treated cells were grown for 8-14 days to allow the formation of colonies. Cells then were fixed for 10 minutes in 4% paraformaldehyde and stained with 0.2% crystal violet (in 20% methanol) for 1-2 minutes. Following several washes with distilled water, the colonies (containing at least 40 cells) were counted. Each individual experiment was repeated on at least 3 separate occasions.

Compound: CCOc1ccc(C=C2SC(=O)N(CCN)C2=O)cc1 [Compound 76]
- effect on ERK1/2 phosphorylation on activating sites [1]: largely unaffected
- inhibition of cell proliferation in HT1080 (in words) [2]: inhibition of cell proliferation
